Results from US4530998A, “2'-Deoxyoxanosine” (Zaidan Hojin Biseibutsu Kagaku KenkyuKai, priority 1983, dated 1985).
Values after ≈ are worked out from the molar mass of the structure shown.

Tests used:
gram-positive bacteria = test: Antibacterial (growth-inhibitory) activity, gram-positive bacteria; assay type: cell-based; conditions: in words
Description: (§1) Calcd.: C:44.91, H:4.47, N:20.75, Found: C:44.78, H:4.51, N:20.89, Molecular formula: C10 H12 N4 O5 Molecular weight: 268. 2'-Deoxyoxanosine in accordance with the present invention had the following antibacterial spectrum on 0.5% peptone agar.

mice = test: Acute toxicity (LD50) in mice; assay type: in vivo; conditions: i.v., in words
[1] = Acute toxicity (LD50) in mice; assay type: in vivo; conditions: mouse, in vivo, iv
Mycobacterium 607 = test: Antibacterial spectrum (MIC) on 0.5% peptone agar; assay type: cell-based
Description: as §1
(§2) Antibacterial spectrum of 2'-deoxyoxanosine

Proteus vulgaris OX19 = test: Antibacterial spectrum (MIC) on 0.5% peptone agar; assay type: cell-based
Description: as §1, §2

Microcuccus flavus FDA16 = test: Antibacterial spectrum (MIC) on 0.5% peptone agar; assay type: cell-based
Description: as §1, §2

[2] = system: Pseudomonas aeruginosa A3; test: Antibacterial spectrum (MIC) on 0.5% peptone agar; assay type: cell-based
Description: as §1, §2

[3] = system: Salmonella enteritidis 1891; test: Antibacterial spectrum (MIC) on 0.5% peptone agar; assay type: cell-based; conditions: Salmonella enterica
Description: as §1, §2

Proteus rettgeri GN466 = test: Antibacterial spectrum (MIC) on 0.5% peptone agar; assay type: cell-based; conditions: Providencia rettgeri
Description: as §1, §2

[4] = system: Staphylococcus aureus Simth; test: Antibacterial spectrum (MIC) on 0.5% peptone agar; assay type: cell-based
Description: as §1, §2

Bacillus subtilis PCI219 = test: Antibacterial spectrum (MIC) on 0.5% peptone agar; assay type: cell-based
Description: as §1, §2

Sarcina luteus PCI1001 = test: Antibacterial spectrum (MIC) on 0.5% peptone agar; assay type: cell-based
Description: as §1, §2

Salmonella typhi T-63 = test: Antibacterial spectrum (MIC) on 0.5% peptone agar; assay type: cell-based; conditions: Salmonella enterica
Description: as §1, §2

[5] = system: Corynebacterium bovis 1810; test: Antibacterial spectrum (MIC) on 0.5% peptone agar; assay type: cell-based
Description: as §1, §2

[6] = system: Shigella dysenteriae JS11910; test: Antibacterial spectrum (MIC) on 0.5% peptone agar; assay type: cell-based
Description: as §1, §2

Escherichia coli K-12 = test: Antibacterial spectrum (MIC) on 0.5% peptone agar; assay type: cell-based; conditions: K12
Description: as §1, §2

Serratia marcescens = test: Antibacterial spectrum (MIC) on 0.5% peptone agar; assay type: cell-based
Description: as §1, §2

[7] = system: Staphylococcus aureus FDA209P; test: Antibacterial spectrum (MIC) on 0.5% peptone agar; assay type: cell-based
Description: as §1, §2

Escherichia coli NIHJ = test: Antibacterial spectrum (MIC) on 0.5% peptone agar; assay type: cell-based
Description: as §1, §2

Shigella sonnei JS11746 = test: Antibacterial spectrum (MIC) on 0.5% peptone agar; assay type: cell-based
Description: as §1, §2

[8] = system: Klebsiella pneumoniae PCI602; test: Antibacterial spectrum (MIC) on 0.5% peptone agar; assay type: cell-based
Description: as §1, §2

[9] = system: Proteus mirabilis IFM OM-9; test: Antibacterial spectrum (MIC) on 0.5% peptone agar; assay type: cell-based; conditions: IFMOM9
Description: as §1, §2

[10] = system: Bacillus subtilis NRRLB-558; test: Antibacterial spectrum (MIC) on 0.5% peptone agar; assay type: cell-based; conditions: NRRLB558
Description: as §1, §2

Escherichia coli ML1628 = test: Antibacterial spectrum (MIC) on 0.5% peptone agar; assay type: cell-based; conditions: Escherichia coli ML1628 (multiple resistant strain)
Description: as §1, §2

Candida albicans 3147 = test: Antibacterial spectrum (MIC) on 0.5% peptone agar; assay type: cell-based
Description: as §1, §2

[11] = system: Shigella flexneri 4bJS11811; test: Antibacterial spectrum (MIC) on 0.5% peptone agar; assay type: cell-based
Description: as §1, §2

Proteus rettgeri GN311 = test: Antibacterial spectrum (MIC) on 0.5% peptone agar; assay type: cell-based; conditions: Providencia rettgeri
Description: as §1, §2

leukemia L-1210 cells = test: Cytotoxicity, growth inhibition of leukemia L-1210 cells; assay type: cell-based
gram-negative bacteria = test: Antibacterial (growth-inhibitory) activity, gram-negative bacteria; assay type: cell-based; conditions: in words
Description: as §1

[12] = Stability under basic conditions; assay type: physicochemical; conditions: in words

In the case of `Nc1nc2c(ncn2[C@H]2C[C@H](O)[C@@H](CO)O2)c(=O)o1` [2'-deoxyoxanosine], the growth-inhibitory activity (gram-positive bacteria) is reported as “did not show this activity against gram-positive bacteria”, the “acute toxicity compared with known antibiotics similar in structure to nucleic acids” value (mice) is reported as “lower toxicity than that of various known antibiotics similar in structure to nucleic acids” and the LD50 [1] is reported as 200 mg/kg. For the same compound, the MIC (Mycobacterium 607) was over 100 µg/mL, the MIC (Proteus vulgaris OX19) was under 0.2 µg/mL and the MIC (Microcuccus flavus FDA16) was over 100 µg/mL. For the same compound, the MIC [2] was over 100 µg/mL, the MIC [3] was over 100 µg/mL and the MIC (Proteus rettgeri GN466) was 25 µg/mL (≈ 93.2 µM). For the same compound, the MIC [4] was over 100 µg/mL, the MIC (Bacillus subtilis PCI219) was over 100 µg/mL and the MIC (Sarcina luteus PCI1001) was over 100 µg/mL. It also gave an MIC (Salmonella typhi T-63) of over 100 µg/mL, an MIC [5] of over 100 µg/mL and an MIC [6] of 1.56 µg/mL (≈ 5.82 µM). It also gave an MIC (Escherichia coli K-12) of 0.78 µg/mL (≈ 2.91 µM), an MIC (Serratia marcescens) of over 100 µg/mL and an MIC [7] of over 100 µg/mL. It also gave an MIC (Escherichia coli NIHJ) of 12.5 µg/mL (≈ 46.6 µM), an MIC (Shigella sonnei JS11746) of 0.78 µg/mL (≈ 2.91 µM) and an MIC [8] of over 100 µg/mL. For the same compound, the MIC [9] was 6.25 µg/mL (≈ 23.3 µM), the MIC [10] was over 100 µg/mL and the MIC (Escherichia coli ML1628) was 3.12 µg/mL (≈ 11.6 µM). The MIC (Candida albicans 3147) was over 100 µg/mL, the MIC [11] was 1.56 µg/mL (≈ 5.82 µM) and the MIC (Proteus rettgeri GN311) was 12.5 µg/mL (≈ 46.6 µM). For the same compound, the IC50 (leukemia L-1210 cells; Mus musculus, L1210, read-out: IC50, the concentration inhibiting growth in 50% of leukemia L-1210 cells) was 0.15 µg/mL (≈ 0.559 µM), the “inhibition of growth of leukemia L-1210 cells” value (leukemia L-1210 cells; in words) was “exhibited the action to inhibit the growth of leukemia L-1210 cells” and the “antibacterial / growth-inhibitory activity” value (gram-negative bacteria) was “relatively high growth-inhibitory activity”. For the same compound, the “antibacterial / growth-inhibitory activity” value (gram-negative bacteria; listed as 2'-Deoxyoxanosine) was “excellent antibacterial activity against gram-negative bacteria” and the stability [12] was “relatively unstable under basic conditions”.
